One data set deals with GBM cells. Description: Calreticulin surface expression and HMGB1 excretion of GBM cells.
For a further data set, the system named is GL261. Description: Potency (cell viability v. concentration) against GBM cell line GL261. Type of data set: cell-based. Here is the method:
(§1) The potencies of several therapies again GBM cells lines were measured.
(§2) FIG. 3 depicts a plot of cell viability v. concentration of each of the therapies listed in the foregoing table.

Data set [1] can be described thus: In vitro drug release from hydrogels. Type of data set: physicochemical. How it is done:
Doxorubin release profiles of the foregoing compositions were tested.
Also compared was the cumulative release percentage of doxil and doxorubicin.
The in vitro release of acriflavine also was tested. An injectable hydrogel formulation (75% oxidized dextran, 12.5% w/v; PAMAM dendrimer, 15% w/v, pH 9.2) was prepared with four different loading concentrations (0.625 mg, 1.25 mg, 2.5 mg, and 5 mg, each of which had been previously injected locally in the brain).

The next data set has as its system GBM spheroids. The data set can be described thus: Elimination of GBM spheroids in vitro. Type of data set: cell-based. To be noted: compared with other tested chemotherapies. An excerpt:
The other tested chemotherapies, however, may be used in the methods and compositions described herein.

The next data set deals with CT-2A. The data set can be described thus: Potency (cell viability v. concentration) against GBM cell line CT-2A. Type of data set: cell-based. How it is done: as §1, §2
[2] abbreviates: Mus musculus, GL261, read-out: IC50 in GL261.

Read-outs that look alike come from different tables or passages of the source. Where only a bound is given, the exact number is not on record here.

`COc1cccc2c1C(=O)c1c(O)c3c(c(O)c1C2=O)C[C@@](O)(C(=O)CO)C[C@@H]3O[C@H]1C[C@H](N)[C@H](O)[C@H](C)O1` [Doxorubicin]: the “surface expression of calreticulin” value with GBM cells (FIG. 42, FIG. 43) is “increase the surface expression of calreticulin”. Moreover, in the data set with GBM cells (at relevant concentrations), the HMGB1 excretion result is on record as “did not impact HMGB1 excretion at relevant concentrations”. In addition, the IC50 in the data set on GL261 (Mus musculus, GL261, comparative testing doxil v. doxorubicin, FIG. 20A/20B, read-out: potency from cell viabilities, GL261 (quantity not named)) turned out to be 0.83 µM; in the data set with GL261 (setting [2]), 0.8 µM; with CT-2A (comparative testing doxil v. doxorubicin, FIG. 20A/20B, read-out: potency from cell viabilities, CT-2A (quantity not named)), 0.17 µM; in the data set on CT-2A (read-out: IC50 in CT-2A) it was 0.1 µM. Besides, in data set [1] (over 200 hours, FIG. 11), the “cumulative percentage released, doxorubicin compared with doxil” value is “greater cumulative percentage”. Also, the “elimination of GBM spheroids” value in the data set on GBM spheroids was “more potently eliminated GBM spheroids in vitro than other tested chemotherapies”.

Regarding `Cn1nnc2c(C(N)=O)ncn2c1=O` [Temozolomide], the IC50 in the data set with GL261 (setting [2]) and in the data set with CT-2A (read-out: IC50 in CT-2A) was > 750 µM throughout.

For `CCc1c2c(nc3ccc(OC(=O)N4CCC(N5CCCCC5)CC4)cc13)-c1cc3c(c(=O)n1C2)COC(=O)[C@]3(O)CC` [Irinotecan], the IC50 was 107 µM in the data set with GL261 (setting [2]) and 150 µM in the data set on CT-2A (read-out: IC50 in CT-2A).

Regarding `O=NN(CCCl)C(=O)NCCCl` [Carmustine (BCNU), Carmustine], the IC50 is 146 µM in the data set on GL261 (setting [2]) and 156 µM with CT-2A (read-out: IC50 in CT-2A).

In the case of Acriflavine, the IC50 in the data set on GL261 (read-out: IC50 in GL261) came to 2.7 µM; in the data set on CT-2A (read-out: IC50 in CT-2A), 7.3 µM. For the same compound, in data set [1] (released from hydrogel), the activity upon release entry is given as “retained its activity upon release”.

Source of the values: US20250281402A1, “COMPOSITIONS FOR LOCAL THERAPY DELIVERY TO BRAIN TUMORS AND METHODS” (Massachusetts Institute of Technology, priority 2022, published 2025).
